How the values were obtained:
[1] = system: adipose fatty acid synthesis; assay: [U-14C]-acetate labeling of adipose tissue from C-75-treated mice; format: in vivo, BALB/c mice
Method: Female BALB/c mice were treated with 0.6 mg of C-75 in 200 μl RPMI, or vehicle control IP (3 per group). After 3 hours, the animals were killed and approximately 5 mg of adipose tissue was labeled with [U-^14C]-acetate, lipids were extracted and counted, [A. Rashid et al., Am. J. Pathol. 150 (1997)]. […] Values represent mean +/−SEM (*P<0.05).
(§1) Male BALB/c mice (4 per group) were given 2 g/kg dextrose by oral gavage. After 15 min mice were injected IP with 20 mg/kg C-75 or RPMI vehicle. One hour post-treatment, livers were rapidly removed, frozen and pulverized in liquid nitrogen, HC104 extracted and assayed for malonyl-CoA [J. D. McGarry, M. J. Stark, D. W. Foster., J. Biol. Chem 253, 8291 (1978)]. Intraperitoneal injection of mice with C-75 leads to a 95% reduction in ^14C-acetate incorporation into fatty acids and to a 110% increase in the level of hepatic malonyl-CoA, the principal substrate of FAS. Experiments described in panels B and C were repeated twice.

[2] = system: hepatic malonyl-CoA; assay: Hepatic malonyl-CoA level after dextrose gavage and IP C-75; format: in vivo, BALB/c mice; settings: 20 mg/kg IP, one hour post-treatment, after 2 g/kg dextrose
Method: as §1

[3] = Body weight after a single IP injection; format: in vivo, BALB/c mice
Method: (§2) The effect of C-75 treatment on feeding behavior and body weight in mice is both rapid and dramatic. A single treatment leads to the loss of as much as 20% of total body weight within 24 hours (FIG. 1.2A). This weight loss occurs in a dose dependent manner and persists for a duration that increases with dose. In all cases, treated animals recover lost body weight after the effect of the drug has dissipated, arguing against induction of a persistent wasting.
Male BALB/c mice 19-22 g were weighed, treated by a single intra peritoneal (I.P.) injection and housed in metabolic cages. Body weight (FIG. 1.2A) and food intake (FIG. 1.2B) were monitored at 24 hour intervals.

[4] = system: 3T3-L1 adipocytes; assay: Cytoplasmic triglyceride accumulation in adipocytes in cell culture; format: cell-based; settings: 3T3-L1 adipocytes in cell culture (not shown)
[5] = system: neuropeptide Y (NPY) mRNA; assay: Northern blot of hypothalamic NPY mRNA; format: in vivo, BALB/c mice; settings: 30 mg/kg C-75, 24 hours
From the text: The control of body weight is integrated in the hypothalamus by a coordinated group of neuropeptides that monitor adiposity and feeding status and regulate feeding and energy utilization. A central regulator in this process is neuropeptide Y (NPY) (loftus, 1999, Sem. Cell. Dev. Biol., 10: 11). In the arcuate nucleus, the level of NPY increases in the fasted state (Schwartz, et al., 1998, Endocrinology, 139:2629), acting as a potent stimulus of feeding (O'Shea, et al., 1997, Endocrinology, 138:196-202). To ascertain whether C-75 might alter NPY regulation in the hypothalamus, the expression of NPY was examined by northern blot analysis of hypothalamic tissue microdissected from the brains of the fed, fasted and C-75-treated mice shown in FIG. 2A.
The hypothalamic region was microdissected from the brains of mice in FIG. 2A and total RNA was isolated. RNA was subjected to northern blot analysis using random primed probes (Feinberg, et al., 1983, Anal. Biochem., 132:6) for NPY and S26 (as a loading control). Tissue was extracted for total RNA as described, P. Chomczynski and N. Sacchi, Anal. Biochem. 162, 156(1987). 15 μg of total RNA was subjected to Northern blot analysis as described, T. Brown, K. Mackey, in Current Protocols in Molecular Biology, F. Ausubel, et al., Eds. (John Wiley and Sons, New York, 1997) pp. 4.9.1-4.9.16.

[6] = system: feeding behavior; assay: Feeding interval in 24 hour fasted mice; format: in vivo; settings: 30 mg/kg IP, within 20 minutes of treatment
Method: Mice were fasted for 24 hours to induce voracious feeding. Initial feeding interval (time in seconds between food presentation and initiation of feeding) was measured in naive mice (pretreat). Mice were then treated by I.P. injection of 30 mg/kg C-75 or RPMI vehicle and feeding interval determined at 20, 40 and 60 minutes post-injection. Observation was terminated if no feeding was initiated within 1000 see (experimental cut off). Times represent mean +/−SEM, (n=4).
Prior to treatment, all animals fed ravenously within 3 minutes of being offered food.

[7] = Body weight of ob/ob mice over two week treatment; format: in vivo; settings: 22 mg/kg IP every third day, two weeks
From the text: The magnitude of this effect is readily evident by inspection of representative C-75 and control treated ob/ob mice.

[8] = system: serum glucose; assay: Serum glucose in ob/ob mice; format: in vivo; settings: 2 weeks treatment, n=3
Method: In addition to obesity, ob/ob mice also develop overt diabetes with significant elevation of blood glucose. C-75 corrected the hyperglycemia observed in vehicle treated mice with a nearly 3-fold reduction in mean serum glucose (FIG. 4A). Male ob/ob mice (n=3) were treated with C-75 or vehicle for 2 weeks (FIGS. 3B and C) and compared with age matched, untreated c57BL/6j mice (+/+). […] The normalization of blood glucose occurred from the profound weight loss in the ob/ob mice as acute treatment of normal mice with C-75 had no effect on serum other than that resulting from inhibition of feeding (FIG. 4B). Male BALB/c mice (n=7) were fasted for 24 hours or injected IP with 30 mg/kg C-75 or RPMI vehicle and allowed free access to food for 24 hours. In both cases, serum was collected at death and assayed for glucose: RefLab™ GLU (Medical Analysis Systems, Inc., Camarillo, Calif.). […] Both panels are representative of 2 experiments.

[9] = Necropsy, histology, plasma alanine aminotransferase and tolerability in treated mice; format: in vivo
From the text: (§3) Alternatively, the signal from the FAS target tissue to the hypothalamus may be mediated by a humoral signal. This FAS-associated signal appears to be independent of the systemic release of the known feeding inhibitory hormones leptin and insulin, and the pro-inflammatory cytokines tumor necrosis factor-α and interleukin-1β. Nor is it reversed by administration of dexamethasone, a synthetic glucocorticoid.
as §2

[10] = Weight loss in mice lacking IL-1r and TNFαr1a receptors; settings: mouse, in vivo
From the text: as §3

C=C1C(=O)OC(CCCCCCCC)C1C(=O)O (stereo not drawn) [C-75]
adipose fatty acid synthesis compared to vehicle control ([1]; 0.6 mg C-75 IP, 3 hours, female BALB/c mice): markedly inhibited | reduction in 14C-acetate incorporation into fatty acids ([1]; intraperitoneal injection): 95% | increase in the level of hepatic malonyl-CoA [2]: 110% | loss of total body weight after a single treatment ([3]; within 24 hours, single IP treatment, 7.5-30 mg/kg): ≤ 20% | loss of total body weight ([3]; within a 24 hour period, BALB/c mice): 10-20% | cytoplasmic triglyceride accumulation [4]: markedly reduces cytoplasmic triglyceride accumulation | level of hypothalamic NPY mRNA [5]: even lower than that of the fed controls | feeding initiation in fasted mice [6]: lost all interest in feeding | body weight of ob/ob mice [7]: substantial reduction in the body weight | reduction in mean serum glucose [8]: ~3 fold | tolerability in mice ([9]; single IP treatment): well tolerated | histological analysis of tissues from treated mice ([9]; single IP treatment (not shown)): no indication of adverse pathology | necropsy and histological analysis of all major organs ([9]; treated mice): no adverse pathology | plasma alanine aminotransferase activity ([9]; treated mice): unchanged | weight loss in mice lacking IL-1r and TNFαr1a receptors [10]: weight loss was observed
